Columns and labels:
[1] = molecular target: T1, B. malayi T6PP (trehalose-6-phosphate phosphatase), wild type (Brugia malayi, UniProt A8NS89); assay: inhibition kinetics; format: biochemical
T1 construct: gene Bm1_08695; full-length (492 residues) from cDNA library, modified pET-15b(TEV), E. coli T7 Express; N-terminal His-tag removed by TEV protease
T1 sequence (A8NS89 1-492): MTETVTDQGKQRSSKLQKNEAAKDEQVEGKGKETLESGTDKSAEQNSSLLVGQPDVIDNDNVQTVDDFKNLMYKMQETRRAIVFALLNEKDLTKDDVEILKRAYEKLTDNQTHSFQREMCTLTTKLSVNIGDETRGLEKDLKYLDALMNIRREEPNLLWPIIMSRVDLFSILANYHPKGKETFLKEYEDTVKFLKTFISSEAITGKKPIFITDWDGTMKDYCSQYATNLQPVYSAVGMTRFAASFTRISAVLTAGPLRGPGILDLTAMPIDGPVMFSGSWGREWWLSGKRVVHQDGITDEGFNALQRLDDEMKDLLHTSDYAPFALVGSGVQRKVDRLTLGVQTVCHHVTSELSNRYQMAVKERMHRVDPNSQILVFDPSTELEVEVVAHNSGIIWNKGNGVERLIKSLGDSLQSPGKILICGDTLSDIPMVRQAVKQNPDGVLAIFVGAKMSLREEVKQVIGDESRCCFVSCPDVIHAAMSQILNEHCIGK

[2] = system: O=P(O)(O)OC[C@H]1O[C@H](O[C@H]2O[C@H](CO)[C@@H](O)[C@H](O)[C@H]2O)[C@H](O)[C@@H](O)[C@@H]1O; assay: steady-state kinetics, EnzChek phosphate assay; format: biochemical, Brugia malayi; conditions: 25 mM Tris pH 7.5, 50 mM NaCl, 5 mM MgCl2
From the text: steady-state kinetics, EnzChek phosphate assay on T6PP-Δ59

[3] = molecular target: T1, B. malayi T6PP (trehalose-6-phosphate phosphatase), wild type; assay: steady-state inhibition kinetics, EnzChek phosphate assay; format: biochemical; conditions: read-out: KI, trehalose 6-sulfate
[4] = molecular target: T2, B. malayi T6PP (trehalose-6-phosphate phosphatase), wild type (Brugia malayi, UniProt A8NS89, N228A); assay: biochemical
T2 construct: gene Bm1_08695
From the text: (§1) steady-state inhibition kinetics, EnzChek phosphate assay on B. malayi T6PP (trehalose-6-phosphate phosphatase), wild type

[5] = molecular target: T3, B. malayi T6PP (trehalose-6-phosphate phosphatase), wild type (Brugia malayi, UniProt A8NS89, Q332A); assay: biochemical
T3 construct: gene Bm1_08695
From the text: as §1

[6] = molecular target: T4, B. malayi T6PP (trehalose-6-phosphate phosphatase), wild type (Brugia malayi, UniProt A8NS89, K334A); assay: biochemical
T4 construct: gene Bm1_08695
From the text: as §1

[7] = molecular target: T5, B. malayi T6PP (trehalose-6-phosphate phosphatase), wild type (Brugia malayi, UniProt A8NS89, D378A); assay: biochemical
T5 construct: gene Bm1_08695
From the text: as §1

[8] = molecular target: T6, B. malayi T6PP (trehalose-6-phosphate phosphatase), wild type (Brugia malayi, UniProt A8NS89, E384A); assay: biochemical
T6 construct: gene Bm1_08695
From the text: as §1

[9] = molecular target: T7, B. malayi T6PP (trehalose-6-phosphate phosphatase), wild type (Brugia malayi, UniProt A8NS89, R337A); assay: biochemical
T7 construct: gene Bm1_08695
From the text: as §1

[10] = molecular target: T8, B. malayi T6PP (trehalose-6-phosphate phosphatase), wild type (Brugia malayi, UniProt A8NS89, W280A); assay: biochemical
T8 construct: gene Bm1_08695
From the text: as §1

[11] = molecular target: T9, B. malayi T6PP (trehalose-6-phosphate phosphatase), wild type (Brugia malayi, UniProt A8NS89, Y221A); assay: biochemical
T9 construct: gene Bm1_08695
From the text: as §1

[12] = molecular target: T10, B. malayi T6PP (trehalose-6-phosphate phosphatase), wild type (Brugia malayi, UniProt A8NS89, S329A); assay: biochemical
T10 construct: gene Bm1_08695
From the text: as §1

[13] = molecular target: T11, B. malayi T6PP (trehalose-6-phosphate phosphatase), wild type (Brugia malayi, UniProt A8NS89, Y225A); assay: biochemical
T11 construct: gene Bm1_08695
From the text: as §1

[14] = substrate: O=P(O)(O)OC[C@H]1O[C@H](O[C@H]2O[C@H](CO)[C@@H](O)[C@H](O)[C@H]2O)[C@H](O)[C@@H](O)[C@@H]1O; assay: steady-state kinetics, EnzChek phosphate assay; format: biochemical, Brugia malayi; conditions: 25 mM Tris pH 7.5, 50 mM NaCl, 5 mM MgCl2; remark: listed apart in the source
From the text: steady-state kinetics, EnzChek phosphate assay on B. malayi T6PP (trehalose-6-phosphate phosphatase), wild type

OC[C@H]1O[C@H](O[C@H]2O[C@H](CO)[C@@H](O)[C@H](O)[C@H]2O)[C@H](O)[C@@H](O)[C@@H]1O [trehalose]
Ki [1]: > 10000 µM

T6PP-Δ59 (Brugia malayi)
Km [2]: 260 ± 20 µM | kcat [2]: 28 ± 1 s⁻¹ | kcat/Km [2]: 110000 M⁻¹ s⁻¹

O=P(O)(O)OC[C@H]1OC(O)[C@H](O)[C@@H](O)[C@@H]1O (stereo partly shown) [glucose 6-phosphate]
Ki ([1]; no inhibition, substrate trehalose 6-phosphate): > 10000 µM

O=S(=O)(O)OC[C@H]1O[C@H](O[C@H]2O[C@H](CO)[C@@H](O)[C@H](O)[C@H]2O)[C@H](O)[C@@H](O)[C@@H]1O [trehalose 6-sulfate]
Ki [3]: 82 ± 7 µM | Ki [4]: 16 ± 2 µM | Ki [5]: 1000 µM | Ki [6]: 150 ± 20 µM | Ki [7]: 320 ± 30 µM | Ki [8]: 200 ± 30 µM | Ki [9]: 700 ± 100 µM | Ki [10]: 270 ± 50 µM | Ki [11]: 1300 µM | Ki [12]: 240 ± 30 µM | Ki [13]: 400 ± 40 µM

B1: B. malayi T6PP (trehalose-6-phosphate phosphatase), wild type (Brugia malayi) (protein)
chain: MTETVTDQGKQRSSKLQKNEAAKDEQVEGKGKETLESGTDKSAEQNSSLLVGQPDVIDNDNVQTVDDFKNLMYKMQETRRAIVFALLNEKDLTKDDVEILKRAYEKLTDNQTHSFQREMCTLTTKLSVNIGDETRGLEKDLKYLDALMNIRREEPNLLWPIIMSRVDLFSILANYHPKGKETFLKEYEDTVKFLKTFISSEAITGKKPIFITDWDGTMKDYCSQYATNLQPVYSAVGMTRFAASFTRISAVLTAGPLRGPGILDLTAMPIDGPVMFSGSWGREWWLSGKRVVHQDGITDEGFNALQRLDDEMKDLLHTSDYAPFALVGSGVQRKVDRLTLGVQTVCHHVTSELSNRYQMAVKERMHRVDPNSQILVFDPSTELEVEVVAHNSGIIWNKGNGVERLIKSLGDSLQSPGKILICGDTLSDIPMVRQAVKQNPDGVLAIFVGAKMSLREEVKQVIGDESRCCFVSCPDVIHAAMSQILNEHCIGK
notes: full-length (492 residues) from cDNA library, modified pET-15b(TEV), E. coli T7 Express; N-terminal His-tag removed by TEV protease
Km [14]: 360 ± 60 µM | kcat [14]: 24 ± 2 s⁻¹ | kcat/Km [14]: 69000 M⁻¹ s⁻¹
